Source: patent publication US9464129B2, “Neuronal exocytosis inhibiting peptides” (BCN PEPTIDES S.A., priority 2006, dated 2016)

Tested on: primary cultures of rat hippocampus neurons
Assay: release of [3H]-L-glutamate from primary cultures of rat hippocampus neurons (neuronal exocytosis)
Type: cell-based
Method: Assay of the Activity of the Irreversibly Chemically Modified Peptides Derived from the SNAP-25 Protein on the Neuronal Exocytosis of [^3H]-L-Glutamate
The exocytosis of this neurotransmitter in neuronal cultures can be obtained by means of electric depolarization of the cells. The primary cultures of rat embryonic hippocampus are prepared using conventional methods [Blanes-Mira C., Merino J. M., Valera E., Fernández-Ballester G., Gutiérrez L. M., Viniegra S., Pérez-Payá E. and Ferrer-Montiel A. “Small peptides patterned after the N-terminus domain of SNAP25 inhibit SNARE complex assembly and regulated exocytosis” J. Neurochem. 88, 124-135] and are maintained in culture for 14 days in an incubator at 37° C. and 5% CO2. The cultures are incubated with [^3H]-L-glutamine in order to load them with [^3H]-L-glutamate for 3 h at 37° C. The excess [^3H]-L-glutamine is subsequent washed off and they are incubated with 0.1 mM of the peptides to be studied for 1 h at 37° C. The [^3H]-L-glutamate is released by means of depolarization with 75 mM KCl and 2 mM CaCl2 buffered in physiological buffer for 10 min at 37° C. The culture medium is collected and the amount of [^3H]-L-glutamate is quantified in a beta radiation meter. The results are normalized with regard to the release of [^3H]-L-glutamate in the absence of the peptide and corrected from the basal release in the absence of calcium.

SEQ ID No.11: unmodified peptide derived from the amino acid sequence of the SNAP-25 protein, residues 12 to 17 (EEMQRR) (listed as Homo sapiens)
concentration required to reach inhibition levels comparable to those of the irreversibly modified peptides (compared with modified peptides at 0.1 mM, in the range of 30 times greater): ~3 mM | inhibition of the release of [3H]-L-glutamate (peptide 0.1 mM, 1 h at 37° C., depolarization with 75 mM KCl and 2 mM CaCl2, FIG. 1): 5%
